Test results taken from patent US20230382894A1, “CCR4 ANTAGONISTS” (CHEMOCENTRYX, INC., priority 2022, published 2023).
pIC50: −log10 of the molar value.

Biological target: T1, CCR4 (Homo sapiens, UniProt P51679)
T1 construct: CEM Cells Endogenous Express CCR4; endogenous in cells; host or cells: CEM cells
T1 sequence (P51679 1-360): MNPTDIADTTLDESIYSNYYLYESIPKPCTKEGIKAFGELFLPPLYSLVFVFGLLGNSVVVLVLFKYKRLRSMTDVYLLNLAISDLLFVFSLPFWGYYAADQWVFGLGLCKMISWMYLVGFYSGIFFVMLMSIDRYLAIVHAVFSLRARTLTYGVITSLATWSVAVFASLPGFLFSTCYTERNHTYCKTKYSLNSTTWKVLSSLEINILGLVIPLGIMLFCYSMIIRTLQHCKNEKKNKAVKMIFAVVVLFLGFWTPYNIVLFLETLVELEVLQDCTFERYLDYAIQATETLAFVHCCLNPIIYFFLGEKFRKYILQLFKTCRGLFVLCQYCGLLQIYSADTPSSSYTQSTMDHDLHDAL
Assay: CEM cell chemotaxis (migration) assay to CCL22 (MDC) in 100% Fetal Bovine Serum (FBS)
Type: cell-based
Settings: CEM cells in 100% FBS with 1% HEPEs; recombinant human CCL22 0.1 nM; 37° C. 60 minutes
From the text: CEM Cells Endogenous Express CCR4
A chemotaxis assay can be used to determine the efficacy of potential receptor antagonists at blocking the migration mediated through chemokine receptors, such as CCR4. This assay is routinely performed using the ChemoTX® microchamber system with a 5 μm pore-sized polycarbonate membrane.
FBS: CEM Cells are collected by centrifugation at 400×g at room temperature, then suspended at 5 million/ml in 100% Fetal Bovine Serum (FBS) with 1% HEPEs. The compound being tested is serially diluted from a maximum final concentration of 10 μM (or an equivalent volume of its solvent (DMSO)) and is then added to the cell/buffer mixture. Separately, recombinant human CCL22 (MDC) at its EC50 concentration (0.1 nM) is placed in the lower wells of the ChemoTX® plate. The 5-μm (pore size) polycarbonate membrane was placed onto the plate, and 20 μL of the cell/compound mixture is transferred onto each well of the membrane. The plates are incubated at 37° C. for 60 minutes, after which the polycarbonate membranes are removed and 5 μl of the DNA-intercalating dye CyQUANT (Invitrogen, Carlsbad, CA) is added to the lower wells. The amount of fluorescence, corresponding to the number of migrated cells, is measured using a Spectrafluor Plus plate reader (TECAN, San Jose, CA).

A pIC50 greater than 7.00 was found for C[C@@H](Nc1nc(N2CCN(C(=O)[C@H]3CCC(=O)N3)[C@@H](CO)C2)ncc1Cl)c1ccc(Cl)cc1Cl [Example 1.111] in this work.

A pIC50 greater than 7.00 was found for C[C@@H]1CN(c2ncc(Cl)c(N[C@H](C)c3ccc(Cl)cc3Cl)n2)CCN1C(=O)[C@H]1CCC(=O)N1 [Example 1.112] in this work.

A pIC50 greater than 7.00 was found for C[C@@H](Nc1nc(N2CCN(C(=O)[C@H]3CCCN3)CC2)ncc1C1CC1)c1ccc(Cl)cc1Cl [Example 1.114] in this work.

A pIC50 greater than 7.00 was found for C[C@@H](Nc1ccnc(N2CCN(C(=O)[C@H]3CCCN3)CC2)n1)c1ccc(Cl)cc1Cl [Example 1.115] in this work.

A pIC50 greater than 7.00 was found for C[C@@H](Nc1ccnc(N2CCN(C(=O)[C@H]3CCC(=O)N3)CC2)n1)c1ccc(Cl)cc1Cl [Example 1.116] in this work.

A pIC50 greater than 7.00 was found for C[C@@H](Nc1nc(N2CCN(C(=O)[C@H]3CCC(=O)N3)CC2)ncc1F)c1ccc(Cl)cc1Cl [Example 1.117] in this work.

A pIC50 greater than 7.00 was found for C[C@@H](Nc1nc(N2CC[C@@H](NC(=O)[C@H]3CCCN3)[C@H](O)C2)ncc1OC(F)F)c1ccc(Cl)cc1Cl [Example 1.118] in this work.

A pIC50 greater than 7.00 was found for C[C@H]1CC[C@H](C(=O)N[C@H]2CCN(c3ncc(OC(F)F)c(N[C@H](C)c4ccc(Cl)cc4Cl)n3)C[C@@H]2O)N1 [Example 1.119] in this work.

A pIC50 greater than 7.00 was found for C[C@@H](Nc1nc(N2CC[C@H](NC(=O)[C@H]3CCCN3)[C@H](O)C2)ncc1OC(F)F)c1ccc(Cl)cc1Cl [Example 1.120] in this work.

A pIC50 greater than 7.00 was found for COc1cnc(N2CCN(C(=O)C34CC(CN3)C4)CC2)nc1N[C@H](C)c1ccc(Cl)cc1Cl [Example 1.121] in this work.

A pIC50 greater than 7.00 was found for C[C@@H](Nc1nc(N2CCN(C(=O)[C@H]3COC(=O)N3)CC2)ncc1Cl)c1ccc(Cl)cc1Cl [Example 1.122] in this work.

A pIC50 greater than 7.00 was found for C[C@@H](Nc1nc(N2CC[C@H](NC(=O)[C@H]3CCC(C)(C)N3)[C@@H](O)C2)ncc1Cl)c1ccc(Cl)cc1Cl [Example 1.123] in this work.

A pIC50 greater than 7.00 was found for C[C@@H](Nc1nc(N2CC[C@H](NC(=O)[C@H]3CCCCN3)[C@@H](O)C2)ncc1Cl)c1ccc(Cl)cc1Cl [Example 1.124] in this work.

A pIC50 of 6.00 to 7.00 was found for C[C@@H](Nc1nc(N2CC[C@H](NC(=O)[C@H]3COCCN3)[C@@H](O)C2)ncc1Cl)c1ccc(Cl)cc1Cl [Example 1.125] in this work.

A pIC50 of 6.00 to 7.00 was found for C[C@@H](Nc1nc(N2CCN(C(=O)C(N)(CO)CCl)CC2)ncc1Cl)c1ccc(Cl)cc1Cl (stereo partly shown) [Example 1.126] in this work.

A pIC50 greater than 7.00 was found for C[C@@H](Nc1nc(N2CCC(C3CCCN(CCC(N)=O)C3)CC2)ncc1Cl)c1ccc(Cl)cc1Cl (stereo partly shown) [Example 1.127] in this work.

A pIC50 of 6.00 to 7.00 was found for C[C@@H](Nc1nc(N2CCN(C(=O)[C@@H]3COCCN3)CC2)ncc1Cl)c1ccc(Cl)cc1Cl [Example 1.128] in this work.

A pIC50 greater than 7.00 was found for C[C@@H](Nc1nc(N2CCN(C(=O)[C@H]3CNCC(=O)N3)CC2)ncc1Cl)c1ccc(Cl)cc1Cl [Example 1.129] in this work.

A pIC50 of 6.00 to 7.00 was found for C[C@@H](Nc1nc(N2CCC(NC(=O)[C@H]3C[C@H](F)CN3)CC2)ncc1Cl)c1ccc(Cl)cc1Cl [Example 1.137] in this work.

A pIC50 of 6.00 to 7.00 was found for C[C@@H](Nc1nc(N2CCN(C(=O)[C@H]3CCCN3C(N)=O)CC2)ncc1Cl)c1ccc(Cl)cc1Cl [Example 1.138] in this work.

A pIC50 greater than 7.00 was found for C[C@@H](Nc1nc(N2CCN(C(=O)[C@H]3CCCN3Cc3nnn[nH]3)CC2)ncc1Cl)c1ccc(Cl)cc1Cl [Example 1.139] in this work.

A pIC50 greater than 7.00 was found for C[C@@H](Nc1nc(N2CCN(C(=O)[C@H]3C[C@@H](F)CN3)CC2)ncc1Cl)c1ccc(Cl)cc1Cl [Example 1.140] in this work.

A pIC50 of less than 6.00 was found for C[C@@H](Nc1nc(N2CCC(N(CCC(=O)O)C(=O)[C@H]3CCCN3)CC2)ncc1Cl)c1ccc(Cl)cc1Cl [Example 1.141] in this work.

A pIC50 greater than 7.00 was found for C[C@@H](Nc1nc(N2CCN(C(=O)[C@H]3C[C@H](F)CN3)CC2)ncc1Cl)c1ccc(Cl)cc1Cl [Example 1.142] in this work.

A pIC50 greater than 7.00 was found for C[C@@H](Nc1nc(N2CCN(C(=O)[C@H]3CCN(C)C3)CC2)ncc1Cl)c1ccc(Cl)cc1Cl [Example 1.143] in this work.

A pIC50 of 6.00 to 7.00 was found for C[C@@H](Nc1nc(N2CCN(C(=O)[C@@H]3CCC(=O)N3)CC2)ncc1Cl)c1ccc(Cl)cc1Cl [Example 1.144] in this work.

A pIC50 greater than 7.00 was found for C[C@@H](Nc1nc(N2CCN(C(=O)[C@@H]3CNCCO3)CC2)ncc1Cl)c1ccc(Cl)cc1Cl [Example 1.145] in this work.

A pIC50 of 6.00 to 7.00 was found for C[C@@H](Nc1nc(N2CCN(C(=O)[C@H]3CC(F)(F)CN3)CC2)ncc1Cl)c1ccc(Cl)cc1Cl [Example 1.146] in this work.

A pIC50 greater than 7.00 was found for C[C@@H](Nc1nc(N2CCN(C(=O)C3CNC(=O)C3)CC2)ncc1Cl)c1ccc(Cl)cc1Cl (stereo partly shown) [Example 1.147] in this work.

A pIC50 of 6.00 to 7.00 was found for C[C@@H](Nc1nc(N2CCN(C(=O)[C@H]3CCN(C)C3)CC2)ncc1C(C)(C)O)c1ccc(Cl)cc1Cl [Example 1.154] in this work.

A pIC50 greater than 7.00 was found for C[C@@H](Nc1nc(N2CC[C@H](NC(=O)[C@H]3CCCN3)[C@@H](O)C2)ncc1OC(F)F)c1ccc(Cl)cc1Cl [Example 1.155] in this work.

A pIC50 greater than 7.00 was found for COc1cnc(N2CCN(C(=O)[C@H]3CCCN3C)CC2)nc1N[C@H](C)c1ccc(Cl)cc1Cl [Example 1.156] in this work.

A pIC50 greater than 7.00 was found for C[C@@H](Nc1nc(N2CCN(C(=O)[C@H]3CCCN3)CC2)ncc1F)c1ccc(Cl)cc1Cl [Example 1.157] in this work.

A pIC50 greater than 7.00 was found for COc1cnc(N2CCC(C3CCCN(CCO)C3)CC2)nc1N[C@H](C)c1ccc(Cl)cc1Cl (stereo partly shown) [Example 1.158] in this work.

A pIC50 greater than 7.00 was found for C[C@@H](Nc1nc(C2CCN(C(=O)[C@H]3CCCN3)CC2)ncc1Cl)c1ccc(Cl)cc1Cl [Example 1.159] in this work.

A pIC50 of less than 6.00 was found for C[C@@H](Nc1nc(C2CCN(C(=O)[C@H]3CCC(=O)N3)CC2)ncc1Cl)c1ccc(Cl)cc1Cl [Example 1.160] in this work.

A pIC50 greater than 7.00 was found for CC(C)Oc1cnc(N2CCN(C(=O)C[C@@H]3CCCN3)CC2)nc1N[C@H](C)c1ccc(Cl)cc1Cl [Example 1.161] in this work.

A pIC50 greater than 7.00 was found for C[C@@H](Nc1nc(C2=CCN(C(=O)[C@H]3CCC(=O)N3)CC2)ncc1Cl)c1ccc(Cl)cc1Cl [Example 1.162] in this work.

For COc1cnc(N2CCN(C(=O)[C@H]3CCNC3)CC2)nc1N[C@H](C)c1ccc(Cl)cc1Cl [Example 1.163], the “Serum IC50 (FBS)” value was “+ ++”.

A pIC50 greater than 7.00 was found for COc1cnc(N2CCN(C(=O)C[C@H]3CCCN3)CC2)nc1N[C@H](C)c1ccc(Cl)cc1Cl [Example 1.164] in this work.

A pIC50 greater than 7.00 was found for COc1cnc(N2CCN(C(=O)C3CCN(C)CC3)CC2)nc1N[C@H](C)c1ccc(Cl)cc1Cl [Example 1.165] in this work.

A pIC50 greater than 7.00 was found for C[C@@H](Nc1nc(N2CCN(C(=O)C[C@H]3CCCN3)CC2)ncc1OC(F)F)c1ccc(Cl)cc1Cl [Example 1.166] in this work.

A pIC50 greater than 7.00 was found for C[C@@H](Nc1nc(N2CCN(C(=O)[C@H]3CCCN3)CC2)ncc1O)c1ccc(Cl)cc1Cl [Example 1.167] in this work.

A pIC50 greater than 7.00 was found for COc1cnc(N2CCN(C(=O)C[C@@H]3CCCN3C)CC2)nc1N[C@H](C)c1ccc(Cl)cc1Cl [Example 1.168] in this work.

A pIC50 greater than 7.00 was found for C[C@@H](Nc1nc(N2CCN(C(=O)C[C@@H]3CCCN3C)CC2)ncc1Cl)c1ccc(Cl)cc1Cl [Example 1.169] in this work.

A pIC50 greater than 7.00 was found for COc1cnc(N2CCC(N(C)C(=O)[C@H]3CCCN3)CC2)nc1N[C@H](C)c1ccc(Cl)cc1Cl [Example 1.170] in this work.

A pIC50 greater than 7.00 was found for C[C@@H](Nc1nc(N2CCN(C(=O)[C@H]3CCC(=O)N3)CC2)ncc1OC(F)F)c1ccc(Cl)cc1Cl [Example 1.171] in this work.

A pIC50 greater than 7.00 was found for C[C@@H](Nc1nc(N2CCN(C(=O)[C@H]3CCCN3)CC2)ncc1OC(F)F)c1ccc(Cl)cc1Cl [Example 1.172] in this work.

A pIC50 greater than 7.00 was found for COc1cnc(N2CCN(C(=O)[C@H]3CC[C@@H](C)N3)CC2)nc1N[C@H](C)c1ccc(Cl)cc1Cl [Example 1.173] in this work.
